Test results as given in US11834401B2, “Treating and preventing diseases by modulating cell mechanics” (THE JOHNS HOPKINS UNIVERSITY, priority 2013, dated 2023).

Experiments:
[1] = tested on: NLS-tdTomato expressing Dictyostelium cells
Method: NLS-tdTomato expressing Dictyostelium cells were challenged with […] compounds from the ChemBridge Divert-SET library and imaged over three days. Raw data was segmented by CIMPAQ, a designed analytical platform, which rank ordered hits based on their cytokinesis or mitotic inhibitory activity, or lethality. Hits were confirmed through a dose-dependent secondary screening.
Ax3::NLS-tdTomato cells were plated on 384-well COP plates with a MicroFloSelect microplate dispenser (BioTek, Winooski, Vt.) at volumes of 80 μl with a cell concentration of 1000 cells/ml for the 24- and 48-hr time points and at the same volume with a cell concentration of 220 cells/ml for the 72-hr time point. Each plate contained four rows of untreated cells with 0.2% DMSO. For the remaining wells, […] of each small molecule maintained at the Johns Hopkins ChemCORE facility, was added, with a final DMSO concentration of 0.2%. Almost half of the ChemBridge Divert-SET library, which is a 50,000 compound chemical diversity library, was screened over a three-day period on a Becton Dickinson Pathway 855 Bioimager System using a 20× objective (NA 0.75). Each image consisted of a montage of four images collected around the center of the well, resulting in a total size of 1344×1024 pixels per image.
Secondary chemical screening was carried out in quadruplicate, with identical culturing conditions as to the primary screen. 14 mM stocks of each compounds dissolved in 100% DMSO were diluted to the following final concentrations: […], 3.5 nM, 35 nM, 350 nM, 3.5 μM, and 35 μM.
Raw image files from both the primary and secondary screening were processed through CIMPAQ (FIGS. 9E and 9F). The single wavelength fluorescence images were converted from 16-bit format to 8-bit format. The MATLAB Image Processing Toolbox was utilized to segment the images in order to identify the nuclei and cytoplasm. The number of nuclei within each segmented cell was quantified to produce a histogram of nuclei per cell for each image (FIG. 9G). All segmented cells that were coincident with the image edge were disregarded.
Image analysis using CIMPAQ: From the histogram of nuclei per cell count, the ratio of the number of multinucleate cells to the number of mononucleate cells and the ratio of the number of binucleate cells to the number of mononucleate cells were computed. Multinucleate cells are defined as cells that contain >2 nuclei. The distribution of both ratios across multiple wells were simultaneously visualized using a scatter plot, with the ratio of multinucleate cells to mononucleate cells plotted on the x-axis and the ratio of binucleate cells to mononucleate cells plotted on the y-axis (FIGS. 9H and 9I). Other information such as the average number of nuclei per cell, the mean nuclear area, and the normalized histogram with respect to total cell number were also computed.
Hit identification using CIMPAQ: Compounds that generate an increase in the number of multinucleate (>2 nuclei/cell) cells are considered cytokinesis inhibitors. Because nearly all cultured cells, including Dictyostelium, have a low background (typically <5% for WT) of non-mononucleate cells, CIMPAQ spreads the data for each sample by determining the ratio (bi:mono) of binucleate (2 nuclei/cell) to mononucleate cells and the ratio (multi:mono) of multinucleate (>2 nuclei/cell) to mononucleate cells. These two ratios then define a set of Cartesian coordinates, describing the effect of each compound on a given cell-line. The coordinates for each compound are plotted on a two-dimensional graph. CIMPAQ fits the control data to a two-dimensional Gaussian distribution (FIG. 9H) and determines the contour lines for two standard deviations (2SD), 3SD, etc. from the control mean (FIG. 9I).
Hit compounds are rank-ordered based on how many SDs away they are from the untreated wells.

myosin II = biological target: T1, myosin II (Dictyostelium discoideum, UniProt P08799); experiment: Myosin II cortical localization by SIM, TIRF and confocal imaging; type: cell-based
T1 construct: expressed in transfected cells; host or cells: Dictyostelium discoideum myoII null cells rescued with GFP-myosin II
Method: Micropipette aspiration was used for cortical tension and creep response measurements. Confocal imaging was performed on a Zeiss 510 Meta with a 63× (numerical aperture [NA] 1.4) objective (Carl Zeiss, Jena, Germany). Epifluorescence and TIRF imaging was performed in a 22° C. temperature controlled room with an Olympus IX81 microscope using a 40× (NA 1.3) or 60× (NA 1.49) objective and a 1.4× optovar (Olympus, Center Valley, Pa.), as previously described. Image analysis was performed with ImageJ (rsb.info.nih.gov/ij).
Imaging conditions during primary screen are described above. All other image analysis was performed as previously described (Kee Y S, et al., 2012). Cells were transferred from Petri dishes (with 0.1% DMSO incubation in growth media of 4 hrs) to imaging chambers and allowed to adhere for 20 min in growth media with 0.1% DMSO. After the cells adhered, the growth media was replaced with 2-(N-morpholino)ethanesulfonic acid (MES) starvation buffer (50 mM MES, pH 6.8, 2 mM MgCl2, 0.2 mM CaCl2) with 0.1% DMS. Confocal imaging was performed on aZeiss 510 Meta with a 63× (numerical aperture [NA] 1.4) objective (Carl Zeiss, Jena, Germany). Epifluorescence and TIR imaging was performed in a 22° C. temperature controlled room with an Olympus IX81 microscope using a 40× (NA 1.3) or 60× (NA […]) objective and a 1.4× optovar (Olympus, Center Valley, Pa.), as previously described. Image analysis was performed with ImageJ (rsb.info.nih.gov/ij). Many data sets were independently analyzed by multiple investigators.

ASPC-1 cells [2] = experiment: Matrigel invasion assay; type: cell-based, human; settings: transwells with 2 mg/ml Matrigel
Method: Cells were treated as in migration assay, but plated in transwells containing 2 mg/ml Matrigel (BD Biosciences).

ASPC-1 cells [3] = experiment: Retrograde actin flow (SiR-actin, lattice light-sheet); type: cell-based, human; settings: 500 nM
Method: AsPC-1 cells were grown on collagen I-coated (50 μg/ml) 5-mm coverslips for 16 hrs and then treated with 100-nM SiR-Actin (Cytoskeleton, Inc) and […] Verapamil for 4 hrs in Leibovitz L-15 without phenol red media, with or without 4-HAP (500 nM). Coverslips were transferred to the imaging chamber of the Lattice Light-Sheet Microscope (LLSM) (Intelligent Imaging Innovations) containing fresh Leibovitz L-15 media without SiR-Actin and verapamil plus the corresponding 4-HAP concentration. Cells were imaged for 3-5 min at 2-3-sec intervals, 50-150 planes per 3D stack, with a Nikon CFI75 Apochromat 25×/1.1 water-dipping objective. Retrograde actin flow was measured using ImageJ (rsb.info.nih.gov/ij). Datasets were independently analyzed by multiple investigators.

NMIIA, NMIIC, ACTN4 = experiment: Western analysis of mechanobiome protein expression; type: cell-based, human; settings: Panc10.05 cells, overnight treatment

T1 sequence (P08799 whole entry): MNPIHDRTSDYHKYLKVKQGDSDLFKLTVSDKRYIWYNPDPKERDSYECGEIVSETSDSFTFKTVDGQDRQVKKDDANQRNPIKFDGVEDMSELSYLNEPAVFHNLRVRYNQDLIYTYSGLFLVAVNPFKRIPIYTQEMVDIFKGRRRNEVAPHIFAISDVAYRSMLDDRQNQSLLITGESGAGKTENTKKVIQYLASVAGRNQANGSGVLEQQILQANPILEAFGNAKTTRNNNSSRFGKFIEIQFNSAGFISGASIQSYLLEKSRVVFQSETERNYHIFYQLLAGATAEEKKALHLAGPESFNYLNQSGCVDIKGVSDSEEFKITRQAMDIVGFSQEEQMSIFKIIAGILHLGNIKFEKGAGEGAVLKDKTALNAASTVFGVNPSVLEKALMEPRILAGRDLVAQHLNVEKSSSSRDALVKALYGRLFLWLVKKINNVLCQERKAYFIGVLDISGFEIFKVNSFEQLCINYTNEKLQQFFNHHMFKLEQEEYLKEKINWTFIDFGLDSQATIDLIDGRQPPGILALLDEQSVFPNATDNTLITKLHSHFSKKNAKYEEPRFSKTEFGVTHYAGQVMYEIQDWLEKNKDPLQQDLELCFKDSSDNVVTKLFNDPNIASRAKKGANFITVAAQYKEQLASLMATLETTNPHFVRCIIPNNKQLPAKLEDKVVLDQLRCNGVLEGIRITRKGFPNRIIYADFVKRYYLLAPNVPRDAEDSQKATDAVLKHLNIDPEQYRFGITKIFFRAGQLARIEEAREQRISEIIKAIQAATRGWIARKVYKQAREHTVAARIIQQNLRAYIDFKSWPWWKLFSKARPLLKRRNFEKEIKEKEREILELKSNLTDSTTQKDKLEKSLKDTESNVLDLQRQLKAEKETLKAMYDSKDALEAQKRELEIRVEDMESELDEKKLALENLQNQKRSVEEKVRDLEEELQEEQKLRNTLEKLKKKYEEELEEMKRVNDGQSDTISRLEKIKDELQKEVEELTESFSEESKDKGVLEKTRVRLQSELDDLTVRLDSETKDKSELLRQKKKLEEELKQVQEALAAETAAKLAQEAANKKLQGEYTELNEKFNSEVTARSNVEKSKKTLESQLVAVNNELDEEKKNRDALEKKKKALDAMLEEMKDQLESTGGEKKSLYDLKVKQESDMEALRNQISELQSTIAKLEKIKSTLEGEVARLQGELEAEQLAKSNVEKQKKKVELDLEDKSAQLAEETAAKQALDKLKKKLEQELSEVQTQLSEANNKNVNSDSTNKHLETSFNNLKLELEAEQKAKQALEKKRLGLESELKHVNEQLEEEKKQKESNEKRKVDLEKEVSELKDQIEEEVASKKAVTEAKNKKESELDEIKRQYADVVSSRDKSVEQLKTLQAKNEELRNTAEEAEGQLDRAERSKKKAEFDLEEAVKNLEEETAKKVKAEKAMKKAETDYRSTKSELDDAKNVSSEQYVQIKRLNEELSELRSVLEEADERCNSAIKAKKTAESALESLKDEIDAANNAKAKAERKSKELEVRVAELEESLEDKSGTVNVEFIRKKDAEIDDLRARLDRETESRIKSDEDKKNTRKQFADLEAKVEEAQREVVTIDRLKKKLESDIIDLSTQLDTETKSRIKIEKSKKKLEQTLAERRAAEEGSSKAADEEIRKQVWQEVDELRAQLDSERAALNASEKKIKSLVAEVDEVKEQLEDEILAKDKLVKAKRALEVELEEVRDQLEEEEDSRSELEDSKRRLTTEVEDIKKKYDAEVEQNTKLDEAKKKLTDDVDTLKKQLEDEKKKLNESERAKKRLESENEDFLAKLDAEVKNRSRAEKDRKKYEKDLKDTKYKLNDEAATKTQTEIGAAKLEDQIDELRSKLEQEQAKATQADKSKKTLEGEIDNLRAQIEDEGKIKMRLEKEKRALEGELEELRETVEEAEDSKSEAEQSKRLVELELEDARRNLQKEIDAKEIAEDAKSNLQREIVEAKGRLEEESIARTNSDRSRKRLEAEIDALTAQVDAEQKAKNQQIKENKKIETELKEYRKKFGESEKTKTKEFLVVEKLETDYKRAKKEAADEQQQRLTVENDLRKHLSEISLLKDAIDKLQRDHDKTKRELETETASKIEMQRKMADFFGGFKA

SMILES | cytokinesis inhibition / cellular effect of a single component ([1]; compound alone) | changes in myosin II cortical distribution (TIRF) (myosin II; 500 nM time course) | lethality to Dictyostelium cells ([1]; 5000 nM) | time to significant localization of GFP-myosin II (myosin II; 500 nM) [min] | time for myosin II localization to revert to pre-treatment levels after removal (myosin II; 500 nM, washout) [min] | increase in myosin II localization at the cortex by TIRF (myosin II; 500 nM, within 10 min) [fold] | subset of cells with BTFs accumulated into ribbon-like rings (myosin II; TIRF) [%] | increase in myosin II at the cortex (myosin II; TIRF time course) [fold] | time for myosin II bipolar thick filaments to accumulate at the cortex (myosin II; TIRF time course) [min] | time to steady state of myosin II cortical accumulation (myosin II; TIRF time course) [min] | myosin II accumulation in cortexillin I deleted cells (myosin II; cortI::GFPmyo cells) | cortical enrichment of myosin II (cortex to cytoplasm) (myosin II; each degradation product tested) | in vitro invasion (ASPC-1 cells [2]) | detectability of actin flow (ASPC-1 cells [3]) | reduction in retrograde actin flow velocity over untreated controls (ASPC-1 cells [3]; cells in which flow could be measured) [%] | expression of NMIIA, NMIIC, or ACTN4 (NMIIA, NMIIC, ACTN4)
Nc1ccc(Cl)c(Cl)c1 [3,4-DCA, 3,4-dichloroaniline] | limited cellular effect | Neither 3,4-DCA nor the urea result in changes in myosin II cortical distribution |  |  |  |  |  |  |  |  |  |  |  |  |  | 
CC(=O)c1ccc(O)cc1 [4-HAP, 4-hydroxyacetophenone] |  |  | lethal | ≤ 10 | ≤ 15 | 2 | 15 | 2.5 | ≤ 5 | 15 | abolished | 4-HAP alone drives myosin II relocalization | dose-dependent decrease | undetectable levels of actin flow | 50 | does not affect the expression
